Measured values reported in patent US8815875B2 (Merck Sharp & Dohme Corp., priority 2008, dated 2014).

Target: FABP4 (Homo sapiens, UniProt P15090)
Experiment: TdF (Temperature Dependence Fluorescence) assay, thermal shift, FABP4
Type: binding
Source text: TdF (Temperature Dependence Fluorescence) Assay for FABP3 and FABP4
The TdF assay was mainly conducted in the 96-well based CHROMO-4 real time fluorescence plate reader (BioRad). The Sypro Orange (Sigma-Aldrich), environmentally sensitive fluorescence dye, was used to monitor the protein folding-unfolding transition. Protein-ligand binding was gauged by the change (or shift) in the unfolding transition temperature (ΔTm) acquired at protein alone with respect to protein in the presence of ligand of interest.
The compound of interest was first prepared in DMSO stock (typical concentration: 10 mM). […] Final percentage of DMSO resided in the sample was 2%. The sample plate was heated from 30° C. to 90° C. with thermal ramping rate of 1° C./min. The fluorescence signals were acquired with excitation and emission wavelengths centered at 490 and 560 nm respectively. The instrument thermal stability was ±0.2° C.
Theoretical basis for TdF-based ligand binding affinity constant
In brief, the binding constant of the ligand at the Tm is expressed as below:
[formula] where To is the midpoint of unfolding for unliganded protein and Tm is the midpoint of unfolding in presence of ligand. [LTm] is free ligand at Tm. The ΔHu and ΔCpu are the enthalpy of unfolding and heat capacity change of unfolding for the protein respectively.
The nonlinear regression fitting in general readily reaches convergence by properly constraining the initial values for the fitting parameters (e.g. the initial “guess” for the ΔHu was constrained to 120 kcal/mol; initial Yn and mn were set to 1 and zero to best represent the melting curve along the low temperature region; negative slope of −0.5 was initially chosen for mu; initial Tm was also constrained to 50° C.).
[formula] (see Brandts et al and Mayhood et al, shown above) where ΔHL (T) is the van't Hoff enthalpy of ligand binding at temperature T and ΔCpL is the heat capacity upon ligand binding. For simplicity, the ΔCpL and ΔHL (T) were set to zero and −7 kcal/mol respectively. […] TdCD (Temperature-dependent Circular Dichroism) Assay for FABP3/4/5

Sequence of FABP4 (P15090 whole entry, species assumed): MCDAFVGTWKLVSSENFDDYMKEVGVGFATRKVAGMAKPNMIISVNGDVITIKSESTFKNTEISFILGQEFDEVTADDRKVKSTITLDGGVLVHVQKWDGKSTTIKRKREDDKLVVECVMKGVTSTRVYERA

SMILES | Kd | FABP4 TdF Kd
CNC(=O)C1(OCc2cc(=O)n3nc(-c4ccccc4)nc3[nH]2)CCCCC1 [48-23] | > 500 nM | –
O=c1cc(COc2cccc(OC(F)(F)F)c2)[nH]c2nc(-c3ccccc3)nn12 [1-64] | > 500 nM | –
Cc1csc(-c2ccc(OCc3cc(=O)n4nc(-c5ccccc5)nc4[nH]3)cc2)n1 [1-44] | > 500 nM | –
O=C(NC1(CO)CCCC1)C1(OCc2cc(=O)n3nc(-c4ccccc4)nc3[nH]2)CCCCC1 [48-59] | – | B (0.5 ≦ B < 0.001 μM)
O=c1cc(COc2ccc(C(F)(F)F)cc2)[nH]c2nc(-c3ccccc3)nn12 [1-7] | > 500 nM | –
O=C(NCC1(CO)CCOCC1)C1(OCc2cc(=O)n3nc(-c4ccccc4)nc3[nH]2)CCCCC1 [48-62] | – | B (0.5 ≦ B < 0.001 μM)
O=c1cc(CN2CCOc3ccccc32)[nH]c2nc(-c3ccccc3)nn12 [1-36] | > 500 nM | –
O=C(O)c1ccccc1OCc1cc(=O)n2nc(-c3ccccc3)nc2[nH]1 [47-53] | > 500 nM | –
COc1cc(CC(C)=O)ccc1OCc1cc(=O)n2nc(-c3ccccc3)nc2[nH]1 [1-72] | > 500 nM | –
COC(=O)C1(NCc2cc(=O)n3nc(-c4ccccc4)nc3[nH]2)CCc2ccc(Br)cc2C1 (stereo not shown) [1-155] | > 500 nM | –
O=C(NCC1(c2cccc(Cl)c2)CCC1)c1c(Cl)cccc1OCc1cc(=O)n2nc(-c3ccccc3)nc2[nH]1 [47-37, 2-chloro-N-((1-(3-chlorophenyl)cyclobutyl)methyl)-6-((7-oxo-2-phenyl-4,7-dihydro-[1,2,4]triazolo[1,5-a]pyrimidin-5-yl)methoxy)benzamide] | ≤ 1 nM | –
Cn1nccc1NC(=O)c1c(Cl)cccc1OCc1cc(=O)n2nc(-c3ccccc3)nc2[nH]1 [47-2, 2-chloro-N-(1-methyl-1H-pyrazol-5-yl)-6-((7-oxo-2-phenyl-4,7-dihydro-[1,2,4]triazolo[1,5-a]pyrimidin-5-yl)methoxy)benzamide] | – | B (0.5 ≦ B < 0.001 μM)
O=C(NCC1(c2ccccc2Cl)CC1)c1ccccc1OCc1[nH]c2nc(-c3ccccc3)nn2c(=O)c1Cl [24-8] | – | B (0.5 ≦ B < 0.001 μM)
COC[C@H]1CCCN1C(=O)C1(OCc2cc(=O)n3nc(-c4ccccc4)nc3[nH]2)CCCCC1 [48-6, (R)-5-((1-(2-(methoxymethyl)pyrrolidine-1-carbonyl)cyclohexyloxy)methyl)-2-phenyl-[1,2,4]triazolo[1,5-a]pyrimidin-7(4H)-one] | – | B (0.5 ≦ B < 0.001 μM)
COc1ccccc1C1(CNC(=O)c2c(Cl)cccc2OCc2cc(=O)n3nc(-c4ccccc4)nc3[nH]2)CC1 [47-48] | – | B (0.5 ≦ B < 0.001 μM)
Cc1ccoc1-c1nc2[nH]c(COc3cccc(Cl)c3C)cc(=O)n2n1 [1-115] | > 500 nM | –
CCc1ccc(OCc2[nH]c3nc(-c4ccccc4)nn3c(=O)c2C)cc1 [15-3] | > 500 nM | –
CCc1ccc(NCc2cc(=O)n3ncnc3[nH]2)cc1 [4-3] | > 500 nM | –
O=C(NCCC1CC1)c1ccccc1OCc1cc(=O)n2nc(-c3ccccc3)nc2[nH]1 [47-61] | – | B (0.5 ≦ B < 0.001 μM)
COc1cccc(C2(CNC(=O)C3(OCc4cc(=O)n5nc(-c6ccccc6)nc5[nH]4)CCCCC3)CC2)c1 [48-70] | – | B (0.5 ≦ B < 0.001 μM)
O=C(NCC1(c2ccc(Cl)cc2)CCC1)c1c(Cl)cccc1OCc1cc(=O)n2nc(-c3ccccc3)nc2[nH]1 [47-24, 2-chloro-N-((1-(4-chlorophenyl)cyclobutyl)methyl)-6-((7-oxo-2-phenyl-4,7-dihydro-[1,2,4]triazolo[1,5-a]pyrimidin-5-yl)methoxy)benzamide] | ≤ 1 nM | –
CCc1ccc(NCc2cc(=O)n3nc(CC)nc3[nH]2)cc1 [5-8] | > 500 nM | –
Cc1cccc(OCc2cc(=O)n3nc(-c4ccccc4)nc3[nH]2)c1C [1-26] | > 500 nM | –
O=c1cc(CN2CCc3ccccc32)[nH]c2nc(-c3ccccc3)nn12 [1-43] | > 500 nM | –
CCc1cccc(C)c1OCc1cc(=O)n2nc(-c3ccccc3)nc2[nH]1 [1-33] | – | B (0.5 ≦ B < 0.001 μM)
Cc1c(Cl)cccc1OCc1cc(=O)n2nc(-c3ccccc3)nc2n1C [28-1] | > 500 nM | –
Cc1cc(N)nn1C(=O)c1c(Cl)cccc1OCc1cc(=O)n2nc(-c3ccccc3)nc2[nH]1 [47-52] | – | B (0.5 ≦ B < 0.001 μM)
O=C(NCC1CC1)C1(OCc2cc(=O)n3nc(-c4ccccc4)nc3[nH]2)CCCCC1 [48-16] | – | B (0.5 ≦ B < 0.001 μM)

SMILES | Kd | FABP4 TdF Kd
CCc1ccc(OCc2cc(=O)n3nc(-c4cccnc4)nc3[nH]2)cc1 [8-5] | > 500 nM | –
COc1ccccc1C1(NC(=O)C2(OCc3cc(=O)n4nc(-c5ccccc5)nc4[nH]3)CCCCC2)CC1 [48-13, N-(1-(2-methoxyphenyl)cyclopropyl)-1-((7-oxo-2-phenyl-4,7-dihydro-[1,2,4]triazolo[1,5-a]pyrimidin-5-yl)methoxy)cyclohexanecarboxamide] | ≤ 1 nM | –
O=c1cc(COC2CCOCC2)[nH]c2nc(-c3ccccc3)nn12 [1-76] | > 500 nM | –
O=c1cc(CN2CCc3ccc(Br)cc32)[nH]c2nc(-c3ccccc3)nn12 [1-82] | – | B (0.5 ≦ B < 0.001 μM)
CC1(NC(=O)C2(OCc3cc(=O)n4nc(-c5ccccc5)nc4[nH]3)CCCCC2)COC1 [48-43] | > 500 nM | –
O=c1cc(CNC2CCc3c(Cl)cccc32)[nH]c2nc(-c3ccccc3)nn12 (stereo not shown) [1-52] | – | B (0.5 ≦ B < 0.001 μM)
COC[C@@H]1CCCN1C(=O)C1(OCc2cc(=O)n3nc(-c4ccccc4)nc3[nH]2)CCCCC1 [48-5, (S)-5-((1-(2-(methoxymethyl)pyrrolidine-1-carbonyl)cyclohexyloxy)methyl)-2-phenyl-[1,2,4]triazolo[1,5-a]pyrimidin-7(4H)-one] | > 500 nM | –
O=C(NCC1(O)CCCCC1)c1c(Cl)cccc1OCc1cc(=O)n2nc(-c3ccccc3)nc2[nH]1 [47-13, 2-chloro-N-((1-hydroxycyclohexyl)methyl)-6-((7-oxo-2-phenyl-4,7-dihydro-[1,2,4]triazolo[1,5-a]pyrimidin-5-yl)methoxy)benzamide] | – | B (0.5 ≦ B < 0.001 μM)
Cc1ccc(C(C)C)cc1N(C)Cc1cc(=O)n2nc(-c3ccccc3)nc2[nH]1 [1-35] | – | B (0.5 ≦ B < 0.001 μM)
Cc1c(Cl)cccc1N(C)C(=O)c1cc(=O)n2nc(-c3ccccc3)nc2[nH]1 [11-4] | > 500 nM | –
O=C(NCC1(O)CCOCC1)c1c(Cl)cccc1OCc1cc(=O)n2nc(-c3ccccc3)nc2[nH]1 [47-25, 2-chloro-N-((4-hydroxytetrahydro-2H-pyran-4-yl)methyl)-6-((7-oxo-2-phenyl-4,7-dihydro-[1,2,4]triazolo[1,5-a]pyrimidin-5-yl)methoxy)benzamide] | – | B (0.5 ≦ B < 0.001 μM)
CCc1ccc(NCc2cc(=O)n3nc(-c4ccccc4)cc3[nH]2)cc1 [10-1] | > 500 nM | –
CN1CCc2c(cccc2OCc2cc(=O)n3nc(-c4ccccc4)nc3[nH]2)C1 [1-98] | > 500 nM | –
CN(CC1(c2ccccc2Cl)CC1)C(=O)C1(OCc2cc(=O)n3nc(-c4ccccc4)nc3[nH]2)CCCCC1 [48-42] | – | B (0.5 ≦ B < 0.001 μM)
CCc1ccc(OCc2cc(=O)n3nc(C(F)(F)F)nc3[nH]2)cc1 [8-2] | > 500 nM | –
O=c1cc(COc2cccc(F)c2)[nH]c2nc(-c3ccccc3)nn12 [1-93] | – | B (0.5 ≦ B < 0.001 μM)
O=C(NCC1(c2ccc(Cl)cc2)CCC1)C1(OCc2cc(=O)n3nc(-c4ccccc4)nc3[nH]2)CCCCC1 [48-65] | ≤ 1 nM | –
CCc1ccc(OCc2cc(=O)n3nc(COC(C)=O)nc3[nH]2)cc1 [8-9] | > 500 nM | –
O=C(NCC1(CO)CCCC1)c1c(Cl)cccc1OCc1cc(=O)n2nc(-c3ccccc3)nc2[nH]1 [47-20, 2-chloro-N-((1-(hydroxymethyl)cyclopentyl)methyl)-6-((7-oxo-2-phenyl-4,7-dihydro-[1,2,4]triazolo[1,5-a]pyrimidin-5-yl)methoxy)benzamide] | – | B (0.5 ≦ B < 0.001 μM)
Cc1c(Cl)cccc1NCc1cc(=O)n2nc(-c3ccccc3)cc2[nH]1 [10-2] | > 500 nM | –
Cc1c(Cl)cccc1SCc1cc(=O)n2nc(-c3ccccc3)nc2[nH]1 [16-2] | – | B (0.5 ≦ B < 0.001 μM)
O=c1cc(Cn2ccc3c(Cl)cccc32)[nH]c2nc(-c3ccccc3)nn12 [1-11] | – | B (0.5 ≦ B < 0.001 μM)
COCCNC(=O)C1(OCc2cc(=O)n3nc(-c4ccccc4)nc3[nH]2)CCCCC1 [48-24] | – | B (0.5 ≦ B < 0.001 μM)
CCc1ccc(NCc2cc(=O)n3nc(C(F)(F)F)nc3[nH]2)cc1 [5-2] | > 500 nM | –
COC[C@@H]1CCCN1C(=O)c1c(Cl)cccc1OCc1cc(=O)n2nc(-c3ccccc3)nc2[nH]1 [47-9, (S)-5-((3-chloro-2-(2-(methoxymethyl)pyrrolidine-1-carbonyl)phenoxy)methyl)-2-phenyl-[1,2,4]triazolo[1,5-a]pyrimidin-7(4H)-one] | – | B (0.5 ≦ B < 0.001 μM)
CN(Cc1cc(=O)n2nc(-c3ccccc3)nc2[nH]1)c1cccc(Br)c1 [1-16] | – | B (0.5 ≦ B < 0.001 μM)
O=C(NCC1(CO)CCC1)C1(OCc2[nH]c3nc(-c4ccccc4)nn3c(=O)c2Cl)CCCCC1 [50-6] | – | B (0.5 ≦ B < 0.001 μM)
